Experimental data as given in patent US20240024317A1, “CANCER TREATMENT USING BOSENTAN IN COMBINATION WITH A CHECKPOINT INHIBITOR” (Materia Therapeutics Inc., priority 2020, published 2024).

How the values were obtained:
[1] = tested on: orthotopic 4T1 breast tumors; experiment: Pimonidazole hypoxia staining (hypoxic area fraction); format: in vivo, mice; details: 1 mg/kg; 4T1 (FIG. 2B)
Experimental: (§1) Because reducing collagen I levels and tissue stiffness decompresses vessels, it was hypothesized that hypoxia, which is an indicator of decreased blood flow to the tumor, would be reduced with bosentan treatment. […] For the hypoxia studies, Mice bearing orthotopic E0771 or 4T1 breast tumors were injected (intraperitoneal) with 60 mg/kg of pimonidazole HCl at 2 hr prior to tumor removal. Prior to tumors excision, animals were anesthetized via Avertin (200 mg/kg, intraperitoneal). Primary tumors were then excised, fixed in 4% PFA, embedded in OCT and processed accordingly for IHC. Hypoxic regions were detected using the mouse anti-pimonidazole RED 549 conjugate antibody (HP7-100Kit, 1:100). Hypoxic area fraction across different treatment groups was normalized to DAPI staining. For fluorescent immunohistochemistry, tumors were removed, washed twice in 1× PBS for 10 min and incubated with 4% PFA overnight at 4° C. The fixative was aspirated, and samples washed twice in 1× PBS for 10 min. Fixed tissues were embedded in optimal cutting temperature compound in cryomolds (Tissue-Tek) and frozen completely at −20° C. […] CD31 signal was detected with Alexa Fluor-488 anti-rabbit IgG (H+L) and CD3 signal with Alexa Fluor-647 anti-rat IgG (H+L) secondary antibodies. Tumor associated T cell and vessel content was determined by the CD31 and CD3 area fraction normalized to DAPI staining. […]

[2] = tested on: 4T1 tumors; experiment: Whole tumor RT-PCR mRNA expression; format: in vivo, mice
[3] = tested on: 4T1 tumors; experiment: Primary tumor growth, bosentan plus ICB cocktail, neo-adjuvant setting; format: in vivo, mice; details: 1 mg/kg bosentan combined with ICB cocktail (10 mg/kg anti-PD-1, 5 mg/kg anti-CTLA-4); n=8-10
Experimental: (§2) To determine if a stiffness-reducing and hypoxia-reducing (blood flow-increasing) regimen of bosentan could enhance the efficacy of an ICB cocktail of anti-PD-1 (mouse monoclonal anti-PD-1 CD279, clone RMP1-14, BioXCell) and anti-CTLA-4 (mouse monoclonal anti-CTLA-4 CD152, clone 9D9, BioXCell) antibodies, mice bearing primary tumors in a neo-adjuvant setting were administered various treatments. Therapy was administered before removing the primary tumors surgically to assess mice survival against spontaneous metastases that arose on treatment. For the combinatorial treatment with bosentan and Immunotherapy studies, bosentan 1 mg/kg or equal volume of diluent (control group) was administered by intraperitoneal injection (i.p.) once a day for 14 days, starting from once the tumor volumes reached an average size of 5 mm diameter. Immunotherapy was administrated as a cocktail of 10 mg/kg anti-PD-1 (CD279, clone RMP1-14, BioXCell) and 5 mg/kg anti-CTLA-4 (CD152, clone 9D9) following dilution in the recommended InVivoPure pH 7.0 Dilution Buffer (BioXCell). […] Planar dimensions (x, y) of tumor were monitored every 2-3 days using a digital caliper and tumor volume was estimated from the volume of an ellipsoid and assuming that the third dimension, z, is equal to x y. […]

[4] = tested on: E0771 cancer cells; experiment: Rechallenge of surviving mice with a second tumor cell inoculation; format: in vivo
Experimental: as §2

[5] = tested on: orthotopic E0771 breast tumors; experiment: Pimonidazole hypoxia staining; format: in vivo, mice; details: 1 mg/kg; E0771 (FIG. 2A)
Experimental: as §1

[6] = tested on: 4T1 tumors; experiment: Dynamic contrast-enhanced ultrasound (DCEUS) perfusion measures; format: in vivo, mice; details: bosentan treated versus control or immunotherapy cocktail only
Experimental: Dynamic contrast-enhanced ultrasound (DCEUS). Tumor associated vascular perfusion was assessed with DCEUS after bolus injection of contrast agents (8 μl of sulphur hexafluoride microbubbles encapsulated by a phospholipid shell with a mean diameter of 2.5 μm, retro-orbital administration). Ultrasound scanning of tumor was performed using the L12-5 transducer. Contrast first harmonic signals were received at 8 MHz with a mechanical index of 0.06. For all subjects the depth was set to 3 cm allowing measurements of the full depth of the tumor. Gain was set at 90% for each recording. Focus was optimized and standardized for each subject when finding the tumor area using B-mode imaging. Real-time power modulation imaging was started after flashing imaging with a high mechanical index to destroy the microbubbles in tumor tissue to peak contrast intensity to allow visualization of bubble replenishment. Image analysis was performed offline using an ultrasound quantification and analysis software (QLAB, Phillips Medical Systems). From the produced time intensity curves, we used as measures of perfusion the Mean transit time and the time required to reach the peak intensity (Rise time). […]

## COc1ccccc1Oc1c(NS(=O)(=O)c2ccc(C(C)(C)C)cc2)nc(-c2ncccn2)nc1OCCO [bosentan, 4-tert-butyl-N-[6-(2-hydroxy-ethoxy)-5-(2-methoxy-phenoxy)-2-(pyrimidin-2-yl)pyrimidin-4-yl] benzenesulfonamide]
[1]
  hypoxia (hypoxic area fraction): reduced hypoxia
[2]
  T cell activity expression (mRNA): increased
  endothelial adhesion molecule expression (mRNA): increased
  hypoxia related gene-expression (mRNA): reduced
[3]
  tumor growth: potentiated tumor growth inhibition
[4]; five surviving mice (bosentan plus ICB) rechallenged
  mice with tumors appearing after rechallenge: two out of the five
[4]; five surviving mice (bosentan plus ICB) versus healthy age-matched control mice
  tumor growth rate after rechallenge: grew much slower
[5]
  hypoxia (pimonidazole staining): reduced hypoxia
[6]
  mean transit time (DCEUS): higher
  rise time (DCEUS): higher
